Test results as given in patent publication US6825178B1, “Methods and products for treating pseudomonas infection” (The Brigham and Women's Hospital, Inc., priority 1996, dated 2004).
Marks after values point to notes of the source that are not given here.

Tested on: transformed human airway epithelial cells (CFT1-LCFSN line)
Test: Inhibition of internalization of P. aeruginosa strain PAO1 into CFT1-LCFSN cells (bacterial ingestion assay)
Assay type: cell-based
Settings: for mean cfu P. aeruginosa internalized (standard deviation): strain PAO1, CFT1-LCFSN cells
Text: Cell lines. CFT1-LCFSN cells, carrying a retrovirally introduced chromosomal copy of the wild-type human CFTR gene were kindly provided by J. Olsen, J. Yankaskis and L. Johnson from The University of North Carolina, Chapel Hill, N.C.. The cell line parental to CFT1-LCFSN is designated CFT1; it is a line of human papilloma virus 18 E6/E7 transformed bronchial epithelial cells derived from a CF patient homozygous for ΔF508 CFTR. The CFT1-LCFSN cells have normal chloride ion conductance. CFT1-ΔF508 cells are derived from CFT1 cells and carry a cDNA introduced by a retrovirus vector that encodes the ΔF508 mutant form of CFTR. Cells were grown in supplemented F-12 medium as described in 5% CO2 at 37° C.
Bacterial strains. P. aeruginosa strains used include PAO1, a well-characterized laboratory strain, and strains 149 and 324, non-mucoid, LPS-smooth clinical isolates of P. aeruginosa from CF patients early in the course of infection. Fresh cultures of P. aeruginosa grown overnight at 37° C. on a tryptic soy agar plate were suspended in supplemented medium to prepare the bacterial inoculum. Approximately 10^6 cfu of the bacterial inoculum were added per well of 10^5, epithelial cells.
Reagents for inhibition of ingestion assays. Membranes were prepared from C127 cells as described by O'Riordan et al.. Membranes were suspended in 150 mM NaCl, 50 mM Tris, pH 7.5 and 1 mM EDTA and added at the indicated concentration to suspensions of P. aeruginosa strains prior to adding this mixture to CFT1-LCFSN cells to measure bacterial uptake. Membranes from CEM/VbI cells expressing P-glycoprotein and membranes from control CEM cells lacking P-glycoprotein were obtained from James Croop of Harvard Medical School. Purified (˜85%) recombinant CFTR was obtained from Genzyme Corp., and prepared as described. The protein was solubilized in 100 mM NaCl, 10 mM Tris, pH 8.0, 2 mM di-thio-threitol and 0.1% sodium dodecyl sulfate. Monoclonal antibodies raised to synthetic peptides corresponding to the first (MAb CF3) and fourth (MAb CF4) predicted extracellular domains of CFTR, as well as a MAb specific to a peptide representing the carboxy-terminal 14 amino acids of mature CFTR (MAb CF2) were provided by Dr. George Banting, University of Bristol, Bristol, UK [12]. Synthetic peptides were obtained from Chiron Mimetopes, San Diego, Calif. Peptide […] (15 amino acids) (SEQ.ID.NO. 3) represents amino acids 103-117 of mature CFTR, peptide […] (31 amino acids) (SEQ.ID.NO. 4) represents amino acids 881-911 of mature CFTR. Peptides were made up as a stock solution in F-12 medium containing 1 μM/μl based on the purity reported by the manufacturer. Peptides were diluted in F-12 tissue culture medium prior to use in assays.
Bacterial ingestion assay. Cells were released from monolayers in tissue culture flasks by 5 min. of incubation with trypsin-versene mixture (BioWhitaker, Walkersville, Md.), washed, counted and seeded into 96-well tissue culture plates at 10^5 cells/well in supplemented F-12 medium and incubated at 37° C. in 5% CO2. Fresh cultures of P. aeruginosa grown overnight at 37° C. on a tryptic soy agar plate were suspended in supplemented F-12 medium to prepare the bacterial inoculum. Then 10^6 colony forming units (cfu) of the bacterial inoculum were added per well of 10^5 epithelial cells. Bacteria were allowed to invade the epithelial cells for 3 to 4 hours at 37° C., after which nonadherent bacteria were removed by washing. The remaining steps of the assay and the steps involved in the controls have previously been described. Three to 9 replicates were obtained per point, and analyzed using analysis of variance (ANOVA) and the Fisher PLSD statistic to determine pairwise differences. […]

## CFTR: purified (~85%) recombinant CFTR obtained from Genzyme Corp.
CFT1-LCFSN cells, nanogram quantities of CFTR
  inhibition of bacterial ingestion (in words): significant inhibition of bacterial ingestion
9.7 μg protein/ml
  mean cfu P. aeruginosa internalized (standard deviation): 1.05 × 10^5 (2.5 × 10^4) cfu
78 μg protein/ml
  mean cfu P. aeruginosa internalized (standard deviation): 8.55 × 10^4 (1.15 × 10^4) cfu
625 μg protein/ml
  mean cfu P. aeruginosa internalized (standard deviation): 4.9 × 10^4 (1.25 × 10^4)^a cfu
5000 μg protein/ml
  mean cfu P. aeruginosa internalized (standard deviation): 1.65 × 10^4 (1.05 × 10^4)^a cfu
